Source: ChEMBL document CHEMBL5113380, “Functionalized quinoxalinones as privileged structures with broad-ranging pharmacological activities” (Eur J Med Chem, 2022)
Converted amounts (≈) assume the structure as drawn. One block for each compound: values may come before it.

Legend:
Trichomonas vaginalis = test: Antiprotozoal activity against Trichomonas vaginalis; assay type: functional, organism-based
[1] = Metabolic stability in human liver microsomes assessed as compound remaining after 1 hr; assay type: ADME, Microsome; details: read-out: Stability
[2] = target: 72 kDa type IV collagenase (Homo sapiens, UniProt P08253); test: Inhibition of MMP-2 (unknown origin) using succinylated gelatin as substrate incubated for 30 mins and measured by gelatin zymography method
[3] = target: Fibroblast growth factor receptor 1 (Homo sapiens, UniProt P11362); test: Inhibition of FGFR1 (unknown origin) using ULight-JAK-1 (Tyr1023) peptide as substrate incubated for 90 mins and measured after 1 hr by LANCE Ultra TR-FRET assay
HCT-116 = test: Antiproliferative activity against human HCT-116 cells after 72 hrs by MTT assay; assay type: functional, cell-based; details: HCT-116, 72 h
NCI-H460 [4] = test: Antiproliferative activity against human NCI-H460 cells after 72 hrs by MTT assay; assay type: functional, cell-based; details: NCI-H460, 72 h
B16-F10 = test: Antiproliferative activity against mouse B16-F10 cells after 72 hrs by MTT assay; assay type: functional, cell-based; details: B16-F10, 72 h
[5] = target: Platelet-derived growth factor receptor beta (Homo sapiens, UniProt P09619); test: Inhibition of PDGFR-beta (unknown origin)
L02 = test: Antiproliferative activity against human HL7702 cells after 72 hrs by MTT assay; assay type: functional, cell-based; details: L02, 72 h
HeLa 229 = test: Antiproliferative activity against human HeLa 229 cells after 72 hrs by MTT assay; assay type: functional, cell-based; details: HeLa 229, 72 h
A549 = test: Antiproliferative activity against human A549 cells; assay type: functional, cell-based
[6] = target: Hepatocyte growth factor receptor (Homo sapiens, UniProt P08581); test: Inhibition of c-MET (unknown origin)
NCI-H460 [7] = test: Antiproliferative activity against human NCI-H460 cells; assay type: functional, cell-based
HT-29 = test: Antiproliferative activity against human HT-29 cells; assay type: functional, cell-based
[8] = target: Amine oxidase [flavin-containing] B (Homo sapiens, UniProt P27338); test: Inhibition of MAO-B (unknown origin)
[9] = target: Amine oxidase [flavin-containing] A (Homo sapiens, UniProt P21397); test: Inhibition of MAO-A (unknown origin)
Candida albicans = test: Antifungal activity against Candida albicans assessed as diameter zone of inhibition; assay type: functional
[10] = tested on: Human immunodeficiency virus 1; test: Antiviral activity against HIV1; assay type: functional, organism-based
[11] = Displacement of [3H]flunitrazepam from GABAA/benzodiazepine receptor complex (unknown origin); parameters: species or system Homo sapiens
[12] = Partial agonist activity at GABAA/benzodiazepine receptor complex (unknown origin) measured by [35S]TBPS based functional assay; parameters: species or system Homo sapiens
[13] = target: Human immunodeficiency virus type 1 reverse transcriptase (Human immunodeficiency virus 1, UniProt Q72547); test: (§1) Inhibition of HIV1 reverse transcriptase
[14] = target: Human immunodeficiency virus type 1 reverse transcriptase (Human immunodeficiency virus 1) (UniProt Q72547); test: as §1
Rattus norvegicus [15] = test: Antiobesity activity in fasted Sprague-Dawley rat assessed as inhibition of food intake for more than 2 hrs when administered orally; assay type: functional; details: route po
Rattus norvegicus [16] = test: Antiobesity activity in fasted Sprague-Dawley rat assessed as inhibition of food intake for more than 2 hrs when administered intraperitoneally; assay type: functional; details: route ip
[17] = Inhibition of DC-SIGN (unknown origin)

Chain of 72 kDa type IV collagenase (P08253 whole entry): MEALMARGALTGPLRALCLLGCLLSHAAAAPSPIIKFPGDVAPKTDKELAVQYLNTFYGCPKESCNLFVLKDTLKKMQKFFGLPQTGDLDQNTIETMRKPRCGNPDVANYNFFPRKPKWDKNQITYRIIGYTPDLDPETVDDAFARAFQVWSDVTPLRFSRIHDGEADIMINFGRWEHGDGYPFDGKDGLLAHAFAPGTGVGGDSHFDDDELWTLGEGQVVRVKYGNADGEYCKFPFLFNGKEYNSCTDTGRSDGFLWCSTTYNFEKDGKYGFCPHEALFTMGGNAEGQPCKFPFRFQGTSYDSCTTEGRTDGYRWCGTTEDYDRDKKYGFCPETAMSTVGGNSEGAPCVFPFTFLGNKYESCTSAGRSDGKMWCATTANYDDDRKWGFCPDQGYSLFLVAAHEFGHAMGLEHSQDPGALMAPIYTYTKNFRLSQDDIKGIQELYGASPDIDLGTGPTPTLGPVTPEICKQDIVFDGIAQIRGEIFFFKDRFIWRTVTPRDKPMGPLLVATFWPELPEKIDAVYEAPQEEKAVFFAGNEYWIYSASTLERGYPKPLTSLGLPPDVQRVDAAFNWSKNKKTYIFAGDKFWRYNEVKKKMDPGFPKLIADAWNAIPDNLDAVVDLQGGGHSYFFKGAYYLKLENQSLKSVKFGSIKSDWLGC
Chain of Platelet-derived growth factor receptor beta (P09619 whole entry): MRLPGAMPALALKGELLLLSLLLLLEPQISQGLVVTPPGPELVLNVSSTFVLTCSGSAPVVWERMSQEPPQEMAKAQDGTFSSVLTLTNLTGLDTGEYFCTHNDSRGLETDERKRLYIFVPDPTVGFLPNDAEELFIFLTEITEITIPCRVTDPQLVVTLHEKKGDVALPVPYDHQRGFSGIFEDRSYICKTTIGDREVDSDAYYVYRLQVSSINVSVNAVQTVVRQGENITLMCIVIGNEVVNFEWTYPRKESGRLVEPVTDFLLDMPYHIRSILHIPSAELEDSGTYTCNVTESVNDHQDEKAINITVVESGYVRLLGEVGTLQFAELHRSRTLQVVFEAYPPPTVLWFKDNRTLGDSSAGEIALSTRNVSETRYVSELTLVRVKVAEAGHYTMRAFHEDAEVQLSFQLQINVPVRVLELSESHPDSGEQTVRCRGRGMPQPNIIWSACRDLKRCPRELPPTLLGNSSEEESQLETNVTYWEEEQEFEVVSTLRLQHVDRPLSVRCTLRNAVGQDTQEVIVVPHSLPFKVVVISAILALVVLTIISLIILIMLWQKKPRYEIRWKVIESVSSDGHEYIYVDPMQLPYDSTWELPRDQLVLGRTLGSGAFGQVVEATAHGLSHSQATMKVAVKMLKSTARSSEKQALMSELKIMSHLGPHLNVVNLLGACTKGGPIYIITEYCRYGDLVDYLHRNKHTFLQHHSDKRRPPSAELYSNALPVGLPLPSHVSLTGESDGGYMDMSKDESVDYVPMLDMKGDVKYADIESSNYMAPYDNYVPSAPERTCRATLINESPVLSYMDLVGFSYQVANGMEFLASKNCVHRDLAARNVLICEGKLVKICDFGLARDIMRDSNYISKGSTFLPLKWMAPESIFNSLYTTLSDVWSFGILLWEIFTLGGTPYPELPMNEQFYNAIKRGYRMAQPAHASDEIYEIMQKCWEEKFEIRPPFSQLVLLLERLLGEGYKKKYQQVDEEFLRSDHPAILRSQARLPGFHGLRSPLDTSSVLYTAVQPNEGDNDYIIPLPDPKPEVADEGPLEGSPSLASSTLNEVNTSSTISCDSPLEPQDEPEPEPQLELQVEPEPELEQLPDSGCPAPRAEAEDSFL
Chain of Amine oxidase [flavin-containing] A (P21397 whole entry): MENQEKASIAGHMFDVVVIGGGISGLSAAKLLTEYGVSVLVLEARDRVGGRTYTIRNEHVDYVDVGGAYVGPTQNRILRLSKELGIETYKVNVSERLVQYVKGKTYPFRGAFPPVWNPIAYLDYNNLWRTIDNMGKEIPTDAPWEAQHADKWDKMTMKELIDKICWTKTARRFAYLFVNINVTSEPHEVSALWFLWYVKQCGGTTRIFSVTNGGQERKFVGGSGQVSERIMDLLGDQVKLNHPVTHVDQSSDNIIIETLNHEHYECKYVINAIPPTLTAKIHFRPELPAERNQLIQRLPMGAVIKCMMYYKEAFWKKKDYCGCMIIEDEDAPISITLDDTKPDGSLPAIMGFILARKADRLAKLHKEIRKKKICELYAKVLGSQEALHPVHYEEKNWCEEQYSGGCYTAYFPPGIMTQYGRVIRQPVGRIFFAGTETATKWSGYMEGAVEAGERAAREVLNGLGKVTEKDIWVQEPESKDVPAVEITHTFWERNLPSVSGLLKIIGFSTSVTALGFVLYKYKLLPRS
Chain of Fibroblast growth factor receptor 1 (P11362 whole entry): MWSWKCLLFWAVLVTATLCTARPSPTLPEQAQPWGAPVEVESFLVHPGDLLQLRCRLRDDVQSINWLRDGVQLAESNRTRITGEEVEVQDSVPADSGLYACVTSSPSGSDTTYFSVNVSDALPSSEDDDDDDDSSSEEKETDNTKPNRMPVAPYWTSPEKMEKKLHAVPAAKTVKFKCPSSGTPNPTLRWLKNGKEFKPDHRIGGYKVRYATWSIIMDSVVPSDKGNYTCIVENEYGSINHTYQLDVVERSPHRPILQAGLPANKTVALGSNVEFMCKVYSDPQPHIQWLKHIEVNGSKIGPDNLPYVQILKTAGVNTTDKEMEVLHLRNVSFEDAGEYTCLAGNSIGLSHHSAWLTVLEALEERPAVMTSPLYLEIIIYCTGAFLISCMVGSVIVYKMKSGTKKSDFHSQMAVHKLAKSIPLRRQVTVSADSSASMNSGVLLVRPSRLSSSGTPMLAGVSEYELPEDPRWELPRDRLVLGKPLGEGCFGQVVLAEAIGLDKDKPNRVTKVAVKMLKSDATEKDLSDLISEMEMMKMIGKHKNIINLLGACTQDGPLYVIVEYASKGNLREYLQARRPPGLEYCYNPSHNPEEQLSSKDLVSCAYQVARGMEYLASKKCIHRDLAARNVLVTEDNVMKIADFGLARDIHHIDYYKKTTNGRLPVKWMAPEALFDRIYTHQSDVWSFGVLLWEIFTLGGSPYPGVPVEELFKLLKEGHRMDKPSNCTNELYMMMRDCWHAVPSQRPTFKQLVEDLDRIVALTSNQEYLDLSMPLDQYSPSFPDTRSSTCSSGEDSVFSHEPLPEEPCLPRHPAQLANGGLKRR
Chain of Amine oxidase [flavin-containing] B (P27338 whole entry): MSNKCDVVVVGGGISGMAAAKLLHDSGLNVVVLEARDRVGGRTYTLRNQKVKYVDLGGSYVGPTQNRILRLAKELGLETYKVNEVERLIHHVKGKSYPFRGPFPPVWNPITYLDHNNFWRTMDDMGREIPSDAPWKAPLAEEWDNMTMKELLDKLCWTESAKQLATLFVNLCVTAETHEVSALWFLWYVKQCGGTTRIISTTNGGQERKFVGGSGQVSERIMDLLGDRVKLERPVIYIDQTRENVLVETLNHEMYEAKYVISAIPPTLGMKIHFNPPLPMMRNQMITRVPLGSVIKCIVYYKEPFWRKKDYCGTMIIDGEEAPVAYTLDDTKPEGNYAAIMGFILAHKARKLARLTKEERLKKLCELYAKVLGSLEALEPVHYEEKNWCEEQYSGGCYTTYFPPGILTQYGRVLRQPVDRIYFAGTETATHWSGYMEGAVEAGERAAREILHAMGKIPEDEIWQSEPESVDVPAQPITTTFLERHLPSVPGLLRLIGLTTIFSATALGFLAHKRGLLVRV
Chain of Hepatocyte growth factor receptor (P08581 whole entry): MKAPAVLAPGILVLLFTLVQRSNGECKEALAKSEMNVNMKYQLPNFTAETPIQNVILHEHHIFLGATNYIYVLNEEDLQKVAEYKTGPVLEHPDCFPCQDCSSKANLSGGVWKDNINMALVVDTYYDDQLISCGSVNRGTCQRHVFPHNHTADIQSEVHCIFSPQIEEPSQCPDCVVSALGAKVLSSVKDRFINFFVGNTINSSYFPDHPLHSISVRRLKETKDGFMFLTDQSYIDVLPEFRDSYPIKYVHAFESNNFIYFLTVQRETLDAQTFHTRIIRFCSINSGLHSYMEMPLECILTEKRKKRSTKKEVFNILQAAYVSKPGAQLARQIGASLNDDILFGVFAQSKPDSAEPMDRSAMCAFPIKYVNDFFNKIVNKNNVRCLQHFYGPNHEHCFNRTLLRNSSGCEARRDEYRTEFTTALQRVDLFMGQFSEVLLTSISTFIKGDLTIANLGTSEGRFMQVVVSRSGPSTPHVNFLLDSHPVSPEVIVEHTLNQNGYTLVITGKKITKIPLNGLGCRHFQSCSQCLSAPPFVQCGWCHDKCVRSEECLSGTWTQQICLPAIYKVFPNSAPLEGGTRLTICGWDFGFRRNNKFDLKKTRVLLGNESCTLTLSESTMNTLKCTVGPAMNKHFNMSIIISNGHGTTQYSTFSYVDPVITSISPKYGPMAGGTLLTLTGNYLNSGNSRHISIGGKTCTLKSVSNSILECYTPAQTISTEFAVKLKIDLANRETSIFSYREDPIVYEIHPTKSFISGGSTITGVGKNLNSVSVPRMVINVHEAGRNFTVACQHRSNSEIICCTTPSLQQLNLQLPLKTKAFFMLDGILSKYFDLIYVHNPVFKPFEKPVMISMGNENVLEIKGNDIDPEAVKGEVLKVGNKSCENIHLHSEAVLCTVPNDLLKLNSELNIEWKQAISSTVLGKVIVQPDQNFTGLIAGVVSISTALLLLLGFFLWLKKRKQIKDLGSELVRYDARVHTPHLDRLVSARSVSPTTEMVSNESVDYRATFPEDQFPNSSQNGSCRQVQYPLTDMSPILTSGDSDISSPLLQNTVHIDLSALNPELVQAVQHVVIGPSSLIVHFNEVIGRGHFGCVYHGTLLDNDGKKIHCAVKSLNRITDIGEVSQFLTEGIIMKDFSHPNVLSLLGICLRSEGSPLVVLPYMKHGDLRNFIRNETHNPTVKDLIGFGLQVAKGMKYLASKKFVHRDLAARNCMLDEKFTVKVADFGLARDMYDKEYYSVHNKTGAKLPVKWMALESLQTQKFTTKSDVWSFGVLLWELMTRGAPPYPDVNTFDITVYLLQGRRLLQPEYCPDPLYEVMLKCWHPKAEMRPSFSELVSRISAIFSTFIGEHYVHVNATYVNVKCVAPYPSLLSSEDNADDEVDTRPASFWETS

Compound: O=C(Nc1ccc(Oc2ccnc(NC(=O)C3CC3)c2)cc1)c1nc2ccccc2n(-c2ccc(F)cc2)c1=O
IC50 (A549): 1570 nM | IC50 [6]: 1.91 nM | IC50 (NCI-H460 [7]): 940 nM | IC50 (HT-29): 650 nM

Compound: C/C(=N\NC(=O)Cn1c(=O)c(Cc2ccccc2)nc2ccccc21)c1ccc(O)cc1
IC50 [8]: 980000 nM | IC50 [9]: 1.6 nM

Compound: CC(C)=NNc1nc2ccccc2[nH]c1=O
diameter of the inhibition zone (DIZ) (Candida albicans): 31 mm

Compound: O=C1CN(S(=O)(=O)c2c(Cl)cccc2Cl)c2cc(Cl)ccc2N1
EC50 [10]: 1090 nM

Compound: CCOC(=O)N1c2ccccc2NC(=O)[C@]1(C#CC1CC1)C(F)(F)F
IC50 [13]: 45 nM | IC90 [14]: 4.8 nM

Compound: O=C1Nc2cc(Cl)c(Cl)cc2N2CCNC[C@H]12
ED50 (Rattus norvegicus [15]): 10 mg/kg | ED50 (Rattus norvegicus [16]): 2 mg/kg

Compound: NS(=O)(=O)c1ccc(CCCC2Nc3ccc(C(=O)N4CCN(c5ccncc5)CC4)cc3NC2=O)cc1 (stereo not given)
IC50 [17]: 310 nM

Now from value to compound, other results behind:

MIC (Trichomonas vaginalis): 100 µg/mL (≈ 318 µM)
Compound: CCOC(=O)C(C)c1nc2ccc(C(F)(F)F)cc2[nH]c1=O (stereo not given)

remaining at 1 h [1]: 22%
Compound: COc1ccc(N2CCN(CCCNC(=O)Cn3c(=O)c4cccn4c4c(C)ccnc43)CC2)cc1

IC50 [2]: 10500 nM
Compound: Cc1ccc(NC(=O)C(Cc2ccccc2)NC(=O)Cn2c(=O)c(C)nc3ccccc32)cc1 (stereo not given)

IC50 [3]: 26600 nM | IC50 (HCT-116): 7630 nM | IC50 (NCI-H460 [4]): 5780 nM | IC50 (B16-F10): 6640 nM | IC50 [5]: > 89500 nM | IC50 (HeLa 229): 14600 nM
Compound: Cn1c(=O)c(/C=C/c2ccccn2)nc2ccccc21
IC50 (L02): 53700 nM

Ki [11]: 14.6 nM | EC50 [12]: 2.04 nM
Compound: CC(C)n1c(=O)c2c(-c3ccc(F)cc3)ncn2c2cccc(Cl)c21
